Tests used:
[1] = tested on: SV40-transformed mouse adult lung fibroblasts; assay: loss of viability, Akt1-expressing vs Akt1-3 triple knockout lung fibroblasts; assay type: cell-based; settings: P<0.01
Description: Shaughnessy J D (2008) Nature 454:172-3; Weinstein I G (2002) Science 297:63-4. Therefore, the possibility that PIT-1 may cause preferential cell death in the cells containing elevated PIP3 levels was examined. […] Li D M et al. (1998) Proc Natl Acad Sci USA 95:15406-11. […] This observation is consistent with the notion that PTEN-deficient cancer cells become overly dependent on PIP3 signaling and, therefore, are hypersensitive to disruption of this pathway compared to wild-type PTEN-expressing cells. Neshat M S et al. (2001) Proc Natl Acad Sci USA 98:10314-9.

PLC-δ PH domain = target: T1, PLC-δ PH domain (Homo sapiens, UniProt P51178); assay: FP assay, PIP2 binding to PLC-δ PH domain; settings: 15 nM TMR-PIP2, 100 nM PLC-δ PH domain, 0-200 μM
T1 construct: 100 nM PLC-δ PH domain
T1 sequence (P51178 21-130 limits assumed): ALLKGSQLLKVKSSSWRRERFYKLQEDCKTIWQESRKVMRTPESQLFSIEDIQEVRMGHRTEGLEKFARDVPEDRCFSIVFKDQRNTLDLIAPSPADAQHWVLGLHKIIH
Procedure: FIG. 5 is a graph depicting specificity and concentration-dependent competitive inhibition of PIP3-PH domain interaction by PIT-1 and PIT-2. 15 nM TMR-conjugated PIP2 were incubated with 100 nM PLC-δ PH domain in the presence or absence of the indicated concentrations of PITs (0-200 μM) for 30 min, followed by FP measurement.
In order to identify compounds that disrupt the interaction between PIP3 and PH domains, a high-throughput fluorescence polarization (FP)-binding assay was developed using recombinant 1-123 amino acid N-terminal fragment of human Akt1 (also referred to herein simply as Akt), encompassing the PH domain (PH123 protein), and fluorescent NBD-labeled PIP3 molecule. The amino acid sequence of human Akt1 is publicly available as, for example, GenBank Accession No. NP_001014432.1 (SEQ ID NO:1), and the corresponding DNA sequence is publicly available as, for example, GenBank Accession No. NM_001014432. Briefly, 5 μM recombinant GST fusion proteins containing 1-123 a.a. N-terminal fragment of human Akt1 (PH 123) or 100 nM 441-551 a.a. region of human PDK1 were incubated with 15 nM TMR-labeled PIP3, PIP2, or PIP5 in buffer containing 50 mM Tris-HCl (pH 7.5), 150 mM NaCl, and 5 mM b-ME for 15 min at room temperature in the dark. FP values were determined using Wallac Victor 3 plate reader. […]

[2] = tested on: multiple cancer cell lines; assay: cancer cell viability (MTS or ATP assay), multiple cancer cell lines; assay type: cell-based; settings: for viability of multiple cancer cell lines: B16, Jurkat, Lewis lung carcinoma, A549, 4T1, SUM-159, MDA-MB-231, MTS or ATP assay
Procedure: Different cancer cell lines U87MG, SUM 159, A549, and MDA-MB-231 were incubated with the indicated concentrations of PIT-1 (12.5-100 μM) for 48 hr. Cell viability was determined using ATP assay.
Based on the critical role of PIP3-dependent Akt signaling in the regulation of cell survival, the effect of PIT-1 on the cancer cell viability was tested. Cancer cells were seeded into 96-well plates (white plates for ATP assay; black plates for fluorescent assay; clear plates for MTS assay) at the density of 5-10×10^3 cells per well in 100 μl of the appropriate media. Compounds were added at a series of concentrations and incubated for different times. For the ATP assay, a luminescence-based commercial kit (CellTiter-Glo, Promega, Madison, Wis.) was used. Thirty microliters of cell lysis/ATP detection reagent was added to each well, mixed for 10 min at room temperature, and the luminescence was measured using a Wallac Victor 3 plate reader (Perkin-Elmer, Wellesley, Mass.). For the MTS assay, a CellTiter 96 AQueous Non-Radioactive Cell Proliferation Assay Kit (Promega, Madison, Wis., USA) was used. Twenty microliters of the combined MTS/PMS solution was added into each well, incubated for 4 hr at 37° C., and the absorbance at 490 nm was measured using a Wallac Victor 3 plate reader. For the Sytox cell death assay, measuring loss of plasma membrane integrity, cells were incubated with 1 μM Sytox Green reagent (Molecular Probes, Eugene, Oreg.) for 30 min at 37° C. and the fluorescence intensity was measured using Wallac Victor 3 plate reader with excitation at 485 nm and emission at 545 nm. Next, 5 μl of 20% (v/v) Triton X-100 solution was added to each well and incubated for 1 hr at 37° C., and the signal was measured again. The ratio of values (percentage of dead cells in each well) before and after Triton X-100 treatment was calculated and normalized to the relevant controls not subjected to the cytotoxic stimuli. IC50 values were determined using Origin6 software (MicroCal, LLC, Northampton, Mass.).

HUVEC = assay: endothelial tube formation assay on Matrigel; assay type: cell-based, human
Procedure: The tube formation assay was performed in 96-well plates. Wells were pre-coated with 70 μl of the Matrigel basement membrane matrix (BD Biosciences) per well for 1 hr at 37° C. HUVEC were suspended in serum-free M199 medium and plated on Matrigel at a density of 2×10^4 cells per well. PIT-1 was added at indicated concentrations (3.125-100 μM). After an 8 hr incubation at 37° C., phase-contrast images of the endothelial tubes were obtained using a Nikon TE2000 microscope, and tube formation was assessed by counting the number of closed tubes in five random fields from each well.

Row | Structure (SMILES) | loss of viability in Akt1-expressing fibroblasts compared to Akt1-3 triple knockout cells [1] | inhibition of interaction between PIP2 and PH domain of PLC-δ (PLC-δ PH domain) | viability of U87MG, SUM 159, A549 and MDA-MB-231 cells ([2]; 12.5-100 μM, 48 hr, ATP assay) | viability of multiple cancer cell lines [2] | IC50 (HUVEC; Homo sapiens, HUVEC on Matrigel, 8 hr, 3.125-100 μM, read-out: IC50, inhibition of tube formation) [µM] | inhibition of tube formation (HUVEC)
1 | O=C(NC(=S)Nc1cc([N+](=O)[O-])cc(Cl)c1O)c1ccccc1 [PIT-1] | more pronounced | failed to inhibit | reduces viability | reduced viability | 7.75 | 
2 | O=C1NC(=S)S/C1=C\c1cc(O)c([N+](=O)[O-])cc1Cc1ccccc1 [PIT-2] | more pronounced | failed to inhibit |  | reduced viability |  | also observed

— patent publication US20120136033A1, “Small Molecule Antagonists of Phosphatidylinositol-3,4,5-Triphosphate (PIP3) and Uses Thereof” (President and Fellows of Harvard College, priority 2009, published 2012)
